Assay results as given in patent publication US20130210907A1, “METHOD FOR PREVENTING OR TREATING ENTEROCHROMAFFIN CELL HYPERPLASIA-RELATED DISEASES BY QUERCETIN ADMINISTRATION” (HONG KONG BAPTIST UNIVERSITY, priority 2012, published 2013).

How the values were obtained:
Type in all cases: in vivo, rat
[1] = tested on: PI-IBS rats; test: Abdominal withdrawal reflex (AWR) test: pain threshold pressure to colorectal distension
Experimental: Sprague-Dawley male rats (Laboratory Animal Services Centre, The Chinese University of Hong Kong) aged 6 weeks with body weight around 220 g are used to develop PI-IBS model. Briefly, rats are fasted for 24 h, and deeply anesthetized with chloral hydrate (350 mg.kg^−1, i.p.). After induction of colitis by 2,4,6-trinitrobenzenesulfonic acid solution (TNBS, 5 mg/0.8 ml/rat, in 50% ethanol, 8 cm from anus) administration, the rats are allowed to recover for at least 4 weeks before use. The control rats are similarly administered with 0.8 ml saline instead of TNBS. Only the rats that have completely recovered from the initial inflammation and acquired visceral hypersensitivity are used as the PI-IBS rats.
6 groups of 12 rats are tested. Normal rats (Group 1) are treated with water. PI-IBS rats are randomly divided into 5 groups and orally treated with water (Group 2), Doxantrazole (mast cell stabilizer, 30 mg/kg/d, Group 3), and Quercetin (Group 4-6) at the dose of 5, 10, and 20 mg/kg/d, respectively. After 2 weeks daily drug administration, 5 rats in each group are used to measure pain threshold pressure by abdominal withdrawal reflex (AWR) test, and the remaining […] is used for electromyography (EMG) recording.
AWR test is performed as previously described in Al-Chaer E D, Kawasaki M, Pasricha P J. A new model of chronic visceral hypersensitivity in adult rats induced by colon irritation during postnatal development. Gastroenterology. 2000 November; 119(5):1276-85. Briefly, rats are lightly anesthetized with ether; a latex balloon is inserted into the descending colon. Rats are then allowed to recover for about 1 h. The tube of the balloon is connected via a Y-connector to a sphygmomanometer and colorectal distension is applied in increments of 5 mmHg until a visible contraction of the abdominal wall is observed by an investigator blinded to the treatment. The pain threshold pressure is defined as the intensity of colorectal distension (CRD) that elicited an observable AWR, i.e. a sudden and persistent abdominal muscle contraction with abdomen lift off the platform. The pain threshold pressure of all groups is recorded and repeated five times with intervals of at least 5 minutes for recovery. EMG recording are conducted as previously described in Tammpere A, Brusberg M, Axenborg J, Hirsch I, Larsson H, Lindstrom E. Evaluation of pseudo-affective responses to noxious colorectal distension in rats by manometric recordings. Pain. 2005 August; 116(3):220-6 and Li Z, Zhang X J, Xu H X, Sung J J, Bian Z X. Intracolonical administration of protease-activated receptor-2 agonists produced visceral hyperalgesia by up-regulating serotonin in the colon of rats. Eur J. Pharmacol. 2009 Mar. 15; 606(1-3):199-204. Firstly, a surgical operation is made to implant the electrodes into the left external abdominal oblique muscles 7 days before EMG recording. After the last drug administration, a flexible latex balloon is inserted into the rat descending colon, and the rats are allowed to accommodate for 1 h. CRD is initiated, and the EMG signal is amplified and filtered by Power Lab System. Graded colorectal distension (20, 40, 60, and 80 mmHg; 20 s duration; 2 min inter-stimulus interval) is carried out for total three cycles to each rat. The changes of area under the curve (AUC) are calculated using that during 20 s distension period over the 20 s baseline.

[2] = tested on: PI-IBS rats; test: Colonic EC cell counting (silver staining); settings: 30 mg/kg i.g.
Experimental: (§1) Six groups of 5 rats are tested. The groups setting and treatments are as described in Example 1. Different from Example 1, AWR test are not applied to the rats in this experiment in order to obtain the basal data without CRD stimulus. After the last drug administration, a 6 cm proximal colon (1-2 cm from caecum) is collected and divided into 3 parts, the proximal is fixed in 4% paraformaldehyde and embedded in paraffin for EC cell staining; the middle part is collected for 5-HT content measurement and electron microscopic evaluation, and the distal part is for western blotting analysis.
Tissue sections (5-μm thick) are deparaffinized and rehydrated for silver staining. Briefly, sections are incubated with 5% ammoniacal silver solution for 4 h at room temperature, then 2 h in 56° C. and subsequently 12 h at room temperature in a dark humidified chamber. After rinsing with water, 5% sodium hyposulfite is added and the tissue sections are incubated for 5 min at room temperature. The brown to black silver precipitate in the cytoplasm of EC cells represents as a positive reaction. A researcher blinded to treatment counted 5 random fields at 200× magnifications for each section, and the number of EC cells per mm^2 of mucosa is quantified using Image J NIH software.

[3] = tested on: PI-IBS rats; test: Colonic tissue 5-HT content (capillary electrophoresis, laser-induced fluorescence); settings: 30 mg/kg i.g.
Experimental: as §1
(§2) 5-HT content in the colon tissue is assayed based on our previously reported procedure in Qi S D, Tian S L, Xu H X, Sung J J, Bian Z X. Quantification of luminally released serotonin in rat proximal colon by capillary electrophoresis with laser-induced fluorescence detection. Anal Bioanal Chem. 2009 April; 393(8):2059-66. Briefly, the colon segment is homogenized in 15% iced trichloroacetic acid; for 2 min and stored at 4° C. for 2 h. After centrifuge at 10,000 G for 15 min, the supernatant of each sample is filtered using 0.22 μm filters and extracted with diethyl ether for five times to remove the trichloroacetic acid. The prepared samples are added to derivatization solution (150 mM sodium tetraborate, 25% acetonitrile, 2 mM CFSE) and incubated for […] in dark at room temperature. The 5-HT content is analyzed by capillary electrophoresis with laser-induced fluorescence detection and expressed as nanogram per milligram (wet weight of tissue).

[4] = tested on: PI-IBS rats; test: Mechanical stimuli (CRD)-induced 5-HT release: colonic 5-HT content with or without CRD
Experimental: as §2
To determine whether mechanical stimuli (CRD) can induce colonic 5-HT release in PI-IBS rats, and whether Quercetin has effect on it, 5-HT content in colonic tissue is evaluated in rats with or without AWR test. The colon tissues for 5-HT content determination are collected from the rats from Example 1 and Example 2, and the methods for 5-HT content determination are followed as described in Example 2.

O=C1c2ccccc2S(=O)(=O)c2cc(-c3nnn[nH]3)ccc21 [Doxantrazole, reference compound] was tested, and the “Pain threshold pressure, after treatment” value ([1]; 30 mg/kg i.g. daily, 2 weeks) was 29 ± 1.2 mmHg, the “Pain threshold pressure, before treatment” value ([1]; 30 mg/kg i.g. group, before treatment) was 25 ± 1.3 mmHg and the “Effect on colonic EC cells number in PI-IBS rats” value [2] was “no marked effects”. The EC cell density ([2]; PI-IBS rats, colon) was 95 ± 10 Number/mm^2, the “Effect on colonic 5-HT content in PI-IBS rats” value [3] was “no marked effects” and the 5-HT content ([3]; PI-IBS rats, colon) was 5.75 ± 0.44^ ng/mg. For the same compound, the “5-HT content of tissue, +CRD” value ([4]; 30 mg/kg i.g., after CRD) was 2.62 ± 0.30 ng/mg, the “5-HT content of tissue, -CRD” value ([4]; 30 mg/kg i.g., without CRD) was 5.75 ± 0.44^ ng/mg and the “Decrease of colon tissue 5-HT content after CRD application” value ([4]; 30 mg/kg, p<0.05) was roughly 54.4%.
